Experimental data as given in patent US20260297136A1, “PEPTIDES WITH LIPOLYTIC, ANTI-LIPOGENIC, ANTIFIBROTIC AND ANTI-INFLAMMATORY ACTIVITY” (FUNDACIÓ HOSPITAL UNIVERSITARI VALL D'HEBRON - INSTITUT DE …, priority 2023, published 2026).

Columns and labels:
HepG2 cells [1] = experiment: Hepatic lipogenesis gene expression (ACC, FAS, ACLY mRNA by RTPCR) in HepG2 cells, Example 2; assay type: cell-based, human; conditions: 10 μM, 24 h, relative to 18S
Experimental: FIG. 5 Human hepatoblastoma cell line HepG2 was treated with vehicle (DMSO) or 10 μM of GP4, GP7, GP8 or GP9 for 24 h. RNA was extracted and mRNA levels of Acetyl-CoA Carboxylase (ACC), Fatty Acid Synthase (FAS) and ATP-Citrate Lyase (ACLY) relative to 18S were measured by RTPCR.
(§1) Cell culture reagents were from Life Technologies Inc (Invitrogen SA, Barcelona, Spain). HepG2 hepatoblastoma cells (cat. no. HB-8065; ATCC, LGC Standards SLU, Barcelona, Spain) were maintained in Dulbecco's modified Eagle medium (DMEM) supplemented with 10% fetal bovine serum and antibiotics. HepG2 cells were treated with vehicle or 10 μM of GP4, GP7, GP8 and GP9 for 24 h. LX-2 human hepatic stellate cells (SCC064) were maintained in DMEM supplemented with 2% fetal bovine serum and antibiotics. For experiments, LX-2 were cultured for 24 h in DMEM 0.2% FBS and treated for 24 h with vehicle or TGFβ1 (20 ng/ml) in the absence or presence of 8 μM of GP4, GP7, GP8 and GP9 for 24 h. At the end of the experiment's cells were harvested for gene expression analysis.
Total RNA was extracted from HepG2 and LX-2 cells using TRIzol reagent (Invitrogen SA). Reverse transcription was performed at 42° C. for 50 minutes using […] of total RNA, 200 U of Superscript II, and an oligo-dT primer and reagents provided by Invitrogen. An aliquot of the reverse transcription product was amplified in a […] reaction using SYBRGreen (Invitrogen SA) with appropriate oligonucleotide primer pairs corresponding to human ACC, FAS, ACLY, Col1A1 and 18S (shown in table 7). Results were analyzed using the 7000 Sequence Detection System program (Applied Biosystems, Thermo Fisher Scientific, Barcelona, Spain) (Sex Hormone-Binding Globulin Reduction in Metabolic Disorders May Play a Role in NAFLD Development.Saez-Lopez C, Barbosa-Desongles A, Hernandez C, Dyer R A, Innis S M, Simo R, Selva D M. Endocrinology. 2017 Mar. 1; 158(3):545-559. doi: 10.1210/en.2016-1668).

LX-2 cells = experiment: Fibrosis in LX-2 cells: Col1A1 mRNA induced by TGFβ1, Example 2; assay type: cell-based, human; conditions: 8 μM, 24 h
Experimental: FIG. 6. Human hepatic stellate cell line LX-2 was treated with vehicle (DMSO) or TGFβ1 (10 ng/ml) in the absence or presence of 8 μM of GP8 or GP9 for 24 h. RNA was extracted and mRNA levels of collagen 1A1 (Col1A1) relative to 18S were measured by RTPCR.
as §1, with “For experiments, LX-2 were cultured for 24 h in DMEM 0.2% FBS and treated for 24 h with vehicle or TGFβ1 (20 ng/ml) in the absence or presence of 8 μM of GP4, GP7, GP8 and GP9 for 24 h. At the end of the experiment's cells were harvested for gene expression analysis.” left out
Total RNA was extracted from HepG2 and LX-2 cells using TRIzol reagent (Invitrogen SA). […] Results were analyzed using the 7000 Sequence Detection System program (Applied Biosystems, Thermo Fisher Scientific, Barcelona, Spain) (Sex Hormone-Binding Globulin Reduction in Metabolic Disorders May Play a Role in NAFLD Development.Saez-Lopez C, Barbosa-Desongles A, Hernandez C, Dyer R A, Innis S M, Simo R, Selva D M. Endocrinology. 2017 Mar. 1; 158(3):545-559. doi: 10.1210/en.2016-1668).

human mature adipocytes [2] = experiment: Lipolysis in human mature adipocytes (glycerol production), Example 2; assay type: cell-based; conditions: 16 h
Experimental: FIG. 7. Mature human subcutaneous adipocytes were treated with vehicle (DMSO), 3 μM of Isoproterenol or 10 μM of GP4, GP8 or GP9 for 16 h. Glycerol concentration was assessed using a Lipolysis Assay Kit (Tebu-bio). Lipolysis induction was calculated with respect to the control cells treated with DMSO.
(§2) Human preadipocytes and cell culture reagents were from purchased from Tebu-Bio (Tebu-bio, Barcelona, Spain) and differentiation protocol was done following the manufacturer's instructions. Human adipocytes were maintained in a humidified incubator with 5% CO2 at 37° C. (Sex hormone-binding globulin overexpression protects against high-fat diet-induced obesity in transgenic male mice. Saez-Lopez C, Villena J A, Simo R, Selva D M. J Nutr Biochem. 2020 November; 85:108480. doi: 10.1016/j.jnutbio.2020.108480).
Lipolysis assays were performed using a Lipolysis Kit (Tebu-Bio) following the manufacturer's instructions as previously described.

HepG2 cells [3] = experiment: Hepatic lipogenic key enzymes in HepG2 cells in the presence of 30 mM fructose (2 h), Example 7; assay type: cell-based, human
Experimental: FIG. 34. Effects of different peptides and SHBG in reducing hepatic lipogenic key enzymes in the presence of 30 mM fructose. Each bar within each group represents mRNA levels of a key hepatic lipogenic enzyme, from left to right: Acetyl-CoA Carboxylase (ACC), ATP Citrate Lyase (ACLY) and Fatty Acid Synthase (FAS), and a key transcription factor regulating several lipogenic enzymes such as PPARγ (PPARγ).
Cell culture reagents were from Life Technologies Inc (Invitrogen SA, Barcelona, Spain). HepG2 hepatoblastoma cells (cat. no. HB-8065; ATCC, LGC Standards SLU, Barcelona, Spain) were maintained in Dulbecco's modified Eagle medium (DMEM) supplemented with 10% fetal bovine serum and antibiotics.
• HepG2 cells were cultured for 5 day in the absence or presence of 30 mM fructose. Cells cultured in 30 mM fructose were daily treated with vehicle, Telmisartan, Semaglutide or EDL6D. • HepG2 cells were cultured for 24 h in the absence or presence of GP6 (40 μg/ml), GP10 (40 μg/ml), GP11 (40 μg/ml), GP12 (40 μg/ml), GP13 (40 μg/ml) or SHBG (20 nM). • HepG2 cells were cultured in the absence or presence of 30 mM fructose and treated for 2 h with vehicle or GP4 (40 μg/ml), GP6 (40 μg/ml), GP7 (40 μg/ml), GP8 (40 μg/ml), GP9 (40 μg/ml), GP10 (40 μg/ml), GP11 (40 μg/ml), GP12 (40 μg/ml), GP13 (40 μg/ml) or SHBG (20 nM).
Total RNA was extracted from HepG2 and LX-2 cells using TRIzol reagent (Invitrogen SA). Reverse transcription was performed at 42° C. for 50 minutes using […] of total RNA, 200 U of Superscript II, and an oligo-dT primer and reagents provided by Invitrogen. An aliquot of the reverse transcription product was amplified in a […] reaction using SYBRGreen (Invitrogen SA) with appropriate oligonucleotide primer pairs corresponding to human SHBG, ACC, FAS, ACLY, PPARG, and 18S and mouse ACC, FAS, ACLY, PPARG, Col1A1 and 18S. Results were analyzed using the 7000 Sequence Detection System program (Applied Biosystems, Thermo Fisher Scientific, Barcelona, Spain) (Shez-Lopez et al Endocrinology 2017).

human mature adipocytes [4] = experiment: Lipolysis in human mature adipocytes (glycerol production), Example 3; assay type: cell-based; conditions: Homo sapiens, Adipocyte; 1 μM, 16 h, with respect to controls; read-out: increase of glycerol concentration (lipolysis positive control)
Experimental: FIG. 4 Mature human subcutaneous adipocytes were treated with vehicle (DMSO), 1 μM of Isoproterenol, Semaglutide (10 nM) or GP6 (25, 50 or 100 μg/ml) for 16 h. Glycerol concentration was assessed using a Lipolysis Assay Kit (Tebu-bio).
as §2
Lipolysis assays were performed using a Lipolysis Kit (Tebu-Bio) following the manufacturer's instructions as previously described by Saez-Lopez and collaborators (Sex hormone-binding globulin overexpression protects against high-fat diet-induced obesity in transgenic male mice. Saez-Lopez C, Villena J A, Simo R, Selva D M. J Nutr Biochem. 2020 November; 85:108480. doi: 10.1016/j.jnutbio.2020.108480.)

[5] = EP 3003351 A1; cited from earlier work

## CC[C@@H](C)[C@@H](NC(=O)[C@H](NC(=O)CNC(=O)[C@@H](CCC(=O)O)NC(=O)[C@H]1CCCN1C(=O)[C@@H](CC(=O)O)NC(=O)[C@@H](Cc1c[nH]c2ccccc12)NC(=O)[C@H](N)[C@H](C)O)C(C)C)C(=O)N[C@H](Cc1ccccc1)C(=O)N[C@H](Cc1ccc(O)cc1)C(=O)NCC(=O)N[C@H](CC(=O)O)C(=O)N[C@@H](C(=O)N[C@H](CC(N)=O)C(=O)N1CCC[C@@H]1C(=O)N[C@H](CCCCN)C(=O)N[C@H](CC(=O)O)C(=O)N[C@H](CC(=O)O)C(=O)N[C@H](Cc1c[nH]c2ccccc12)C(=O)N[C@H](Cc1ccccc1)C(=O)N[C@H](CCSC)C(=O)N[C@H](CC(C)C)C(=O)NCC(=O)N[C@H](CC(C)C)C(=O)N[C@H](CCCNC(=N)N)C(=O)N[C@H](CC(=O)O)C(=O)NCC(=O)N[C@H](CCCNC(=N)N)C(=O)N1CCC[C@@H]1C(=O)N[C@H](CCC(=O)O)C(=O)O)[C@H](C)O [GP9]
HepG2 cells [1]
  ATP-Citrate Lyase (ACLY) mRNA levels: did not alter
  Acetyl-CoA Carboxylase (ACC) mRNA levels: did not alter
  Fatty Acid Synthase (FAS) mRNA levels: reduced
LX-2 cells
  reduction of Col1A1 mRNA levels induced by TGFβ1: 21%
Human mature adipocytes [2]; 10 μM, with respect to control cells
  increase of glycerol production (lipolysis): 170%
HepG2 cells [3]; 40 μg/ml
  fructose-induced expression of ACC: able to reduce the expression of ACC and ACLY more effectively than SHBG
  fructose-induced expression of ACLY: able to reduce the expression of ACC and ACLY more effectively than SHBG
  fructose-induced expression of FAS: had no effect on FAS
  fructose-induced expression of PPARγ: increased PPARγ expression

## CC(C)NCC(O)c1ccc(O)c(O)c1 (stereo not shown) [isoproterenol, 4-[1-hydroxy-2-(propan-2-ylamino)ethyl]benzene-1,2-diol, reference compound]
Human mature adipocytes [2]; Homo sapiens, Adipocyte, 3 μM, with respect to control, read-out: increase of glycerol concentration (lipolysis positive control)
  activation at 3 µM: 370%
Human mature adipocytes [4]
  activation at 1 µM: 400%

B1: SHBG: sex hormone-binding globulin (SHBG) protein (protein, UniProt P04278 30-402, looked up)
Sex hormone-binding globulin: LRPVLPTQSAHDPPAVHLSNGPGQEPIAVMTFDLTKITKTSSSFEVRTWDPEGVIFYGDTNPKDDWFMLGLRDGRPEIQLHNHWAQLTVGAGPRLDDGRWHQVEVKMEGDSVLLEVDGEEVLRLRQVSGPLTSKRHPIMRIALGGLLFPASNLRLPLVPALDGCLRRDSWLDKQAEISASAPTSLRSCDVESNPGIFLPPGTQAEFNLRDIPQPHAEPWAFSLDLGLKQAAGSGHLLALGTPENPSWLSLHLQDQKVVLSSGSGPGLDLPLVLGLPLQLKLSMSRVVLSQGSKMKALALPPLGLAPLLNLWAKPQGRLFLGALPGEDSSTSFCLNGLWAQGQRLDVDQALNRSHEIWTHSCPQSPGNGTDASH
HepG2 cells [3]; SHBG 20 nM
  fructose-induced expression of ACC: able to reduce
  fructose-induced expression of ACLY: able to reduce
  fructose-induced expression of FAS: able to reduce
  fructose-induced expression of PPARγ: able to reduce
[5]
  lipolytic and anti-lipogenic activity: has lipolytic and anti-lipogenic activity
